Measured values as given in patent publication US12173026B2, “PRMT5 inhibitors” (Merck Sharp & Dohme LLC, priority 2018, dated 2024).
pEC50: −log10 of the molar value.

System: symmetric dimethylation of arginine (SDMA) of PRMT5 substrates in MCF-7 cells
Experiment: PRMT5 Cell Target Engagement (TE) Assay
Assay type: cell-based
Conditions: Homo sapiens, MCF7, 72 h; MCF-7 cells treated for 3 days; nuclear SDMA by high content imaging; top concentration 10000 nM
Text: PRMT5 Cell Target Engagement (TE) Assay
The PRMT5 TE assay is a biomarker assay for identifying compounds that inhibit symmetric dimethylation of arginine (SDMA) of PRMT5 substrates. The following substrates have been reported for PRMT5: Histone H2A and H4 R3, Histone H3 R2, Histone 1-13 R8, spliceosome Sm proteins, ribosomal protein RPS10, p53, FEN1, nucleoplasmin, nucleolin, EGFR and EBNA. The assay will focus on detecting symnetrically dimethylated nuclear proteins using high content imaging technology. Detection of the expression of symmetrically dimethylated nuclear proteins is through a mixture of primary rabbit monoclonal antibodies to SDMA (CST 13222) which in turn recognized by an Alexafluor 488 dye-conjugated anti-rabbit IgG secondary antibody. The IN Cell Analyzer 2200 or Opera-Phenix measures nuclear Alexafluor 488 fluorescent dye intensity that is directly related to the level of expression of symmetrically dimethylated nuclear proteins at the single cell level. Nuclear AF488 dye intensities are compared to the mean value for DMSO treated cells (MIN) to report percent of inhibition for each compound-treated well.
In this assay, the cell potency (EC50) of each compound was determined from a ten point (1:3 serial dilution; top compound concentration of 10000 nM) titration curve using the following outlined procedure. Each well of a BD falcon collagen coated black/clear bottom 384-well plate was seeded with 4000 MCF-7 cells in 30 pal media and allowed to attach for 5 hours. Media is ATCC-formulated Eagle's Minimum Essential Medium, Catalog No. 30-2003. The following components were added to the base medium: 0.01 mg/mL human recombinant insulin; fetal bovine serum to a final concentration of 10%. Additional 30 pal of media containing 2× compounds were added to each well. Cells were treated for 3 days in 37° C. CO2 incubator. On day 3, cells were fixed with Cytofix, permeabilized with 0.4% Triton-X-100/Cytofix, and washed with D-PBS without Ca/Mg. Cells were blocked with Licor Odessey blocking reagent for 1 hour at room temperature, followed by incubation with anti-SDMA (1:1000) antibody at 4° C. overnight. 1° antibody was removed, followed by three washings with DPBS without Ca/Mg and 0.05% Tween20. Hoechst (5 μg/mL), Cell Mask deep stain (1:2000) and Alexa488-conjugated goat anti-rabbit IgG (2 μg/mL) was added for 1 hour at room temperature. A final washing step (three washes) was performed before sealing plate for imaging on in Cell Analyzer 2200 or Opera-Phenix. Images from analyzer were uploaded to Columbus for image analysis. IC50 values were determined by 4 parameters robust fit of percent fluorescence units vs. (Log 10) compound concentrations.

Nc1nc2c(F)c(C[C@@H]3CC[C@@]4(O)[C@@H]3O[C@@H](n3ccc5c(N)ncnc53)[C@@H]4O)ccc2cc1Cl [Example 26, (2R,3R,3aS,6S,6aR)-6-((2-amino-3-chloro-8-fluoroquinolin-7-yl)methyl)-2-(4-amino-7H-pyrrolo[2,3-d]pyrimidin-7-yl)hexahydro-3aH-cyclopenta[b]furan-3,3a-diol]
pEC50: 8.40

C[C@@]1(O)[C@@H](COc2ccc3cc(Br)c(N)nc3c2)C[C@@H](n2ccc3c(N)ncnc32)[C@@H]1O [Example 2]
pEC50: 9.15

CC(C)c1ncnc2c1ccn2[C@@H]1O[C@@H]2[C@H](Cc3ccc4cc(Br)c(N)nc4c3)CC[C@]2(O)[C@H]1O [Example 83, (2R,3R,3aS,6S,6aR)-6-((2-amino-3-bromoquinolin-7-yl)methyl)-2-(4-isopropyl-7H-pyrrolo[2,3-d]pyrimidin-7-yl)hexahydro-3aH-cyclopenta[b]furan-3,3a-diol]
pEC50: 7.39

C[C@]1(COc2ccc3cc(Br)c(N)nc3c2)C[C@@H](n2ccc3c(N)ncnc32)[C@H](O)[C@]1(C)O [Example 111, (1R,2S,3R,5R)-5-(((2-amino-3-bromoquinolin-7-yl)oxy)methyl)-3-(4-amino-7H-pyrrolo[2,3-d]pyrimidin-7-yl)-1,5-dimethylcyclopentane-1,2-diol]
pEC50: 5.63

Cc1ncnc2c1ccn2[C@@H]1O[C@@H]2[C@@H](Oc3ccc4cc(C(F)F)c(N)nc4c3)CC[C@]2(O)[C@H]1O [Example 115, (2R,3R,3aS,6S,6aR)-6-((2-amino-3-(difluoromethyl)quinolin-7-yl)oxy)-2-(4-methyl-7H-pyrrolo[2,3-d]pyrimidin-7-yl)hexahydro-3aH-cyclopenta[b]furan-3,3a-diol]
pEC50: 7.87

Nc1nc2cc(C[C@@H]3CC[C@@]4(O)[C@@H]3O[C@@H](n3ccc5c(N)nc(Cl)nc53)[C@@H]4O)ccc2cc1Cl [Example 47, (2R,3R,3aS,6S,6aR)-2-(4-amino-2-chloro-7H-pyrrolo[2,3-d]pyrimidin-7-yl)-6-[(2-amino-3-chloroquinolin-7-yl)methyl]hexahydro-3aH-cyclopenta[b]furan-3,3a-diol]
pEC50: 8.85

Cc1ncnc2c1ccn2[C@@H]1O[C@@H]2[C@H](Oc3ccc4cc(Br)c(N)nc4c3)CC[C@]2(O)[C@H]1O [Example 129, (2R,3R,3aS,6R,6aR)-6-((2-amino-3-bromoquinolin-7-yl)oxy)-2-(4-methyl-7H-pyrrolo[2,3-d]pyrimidin-7-yl)hexahydro-3aH-cyclopenta[b]furan-3,3a-diol]
pEC50: 5.00

Nc1nc2cc(C[C@@H]3CC[C@@]4(O)[C@@H]3O[C@@H](n3ccc5c(N)ncnc53)[C@@H]4O)ccc2cc1F [Example 124, (2R,3R,3aS,6S,6 aR)-6-((2-amino-3-fluoroquinolin-7-yl)methyl)-2-(4-amino-7H-pyrrolo[2,3-d]pyrimidin-7-yl)hexahydro-3aH-cyclopenta[b]furan-3,3a-diol]
pEC50: 8.64

C[C@]1(CCc2ccc3cc(Br)c(N)nc3c2)C[C@@H](n2ccc3c(N)ncnc32)[C@H](O)[C@]1(C)O [Example 117, (1R,2S,3R,5S)-5-(2-(2-amino-3-bromoquinolin-7-yl)ethyl)-3-(4-amino-7H-pyrrolo[2,3-d]pyrimidin-7-yl)-1,5-dimethylcyclopentane-1,2-diol]
pEC50: 8.07

Cc1ncnc2c1ccn2[C@@H]1O[C@@H]2[C@H](Cc3cnc4cc(F)c(N)nc4c3)CC[C@]2(O)[C@H]1O [Example 25, (2R,3R,3aS,6S,6aR)-6-((6-amino-7-fluoro-1,5-naphthyridin-3-yl)methyl)-2-(4-methyl-7H-pyrrolo[2,3-d]pyrimidin-7-yl)hexahydro-3aH-cyclopenta[b]furan-3,3a-diol, 3HCl]
pEC50: 6.59

C[C@@]1(O)[C@@H](CCc2ccc3cc(Br)c(N)nc3c2)O[C@@H](n2ccc3c(N)ncnc32)[C@@H]1O [Example 14, (2R,3S,4R,5R)-2-(2-(2-amino-3-bromoquinolin-7-yl)ethyl)-5-(4-amino-7H-pyrrolo[2,3-d]pyrimidin-7-yl)-3-methyltetrahydrofuran-3,4-diol]
pEC50: 7.77

C[C@@]1(CCc2ccc3cc(F)c(N)nc3c2)C[C@@H](n2ccc3c(N)ncnc32)[C@H](O)[C@@H]1O [Example 116, (1S,2R,3R,5R)-3-(2-(2-amino-3-fluoroquinolin-7-yl)ethyl)-5-(4-amino-7H-pyrrolo[2,3-d]pyrimidin-7-yl)-3-methylcyclopentane-1,2-diol]
pEC50: 7.27

Nc1nc2cc(C[C@@H]3CC[C@@]4(O)[C@@H]3O[C@@H](n3cc(F)c5c(N)ncnc53)[C@@H]4O)ccc2cc1F [Example 59, (2R,3R,3aS,6S,6aR)-6-((2-amino-3-fluoroquinolin-7-yl)methyl)-2-(4-amino-5-fluoro-7H-pyrrolo[2,3-d]pyrimidin-7-yl)hexahydro-3aH-cyclopenta[b]furan-3,3a-diol]
pEC50: 8.34

Cc1ncnc2c1ccn2[C@@H]1O[C@@H]2[C@H](Cc3ccc4cc(Br)c(N)nc4c3)OC[C@]2(O)[C@H]1O [Example 133]
pEC50: 8.57

C[C@@]1(O)[C@@H](COc2ccc3cc(Br)c(N)nc3c2)O[C@@H](n2ccc3c(Cl)ncnc32)[C@@H]1O [Example 11, (2R,3S,4R,5R)-2-{[(2-amino-3-bromoquinolin-7-yl)oxy]methyl}-5-(4-chloro-7H-pyrrolo[2,3-d]pyrimidin-7-yl)-3-methyltetrahydrofuran-3,4-diol]
pEC50: 6.88

Cc1cc2ccc(C[C@@H]3CC[C@@]4(O)[C@@H]3O[C@@H](n3ccc5c(N)ncnc53)[C@@H]4O)cc2nc1N [Example 125, (2R,3R,3aS,6S,6aR)-6-((2-amino-3-methylquinolin-7-yl)methyl)-2-(4-amino-7H-pyrrolo[2,3-d]pyrimidin-7-yl)hexahydro-3aH-cyclopenta[b]furan-3,3a-diol]
pEC50: 9.15

Nc1ncnc2c1ccn2[C@@H]1O[C@@H]2[C@@H](Oc3ccc4cc5c(nc4c3)NCC5)CC[C@]2(O)[C@H]1O [Example 75, (2R,3R,3aS,6S,6aR)-2-(4-amino-7H-pyrrolo[2,3-d]pyrimidin-7-yl)-6-((2,3-dihydro-1H-pyrrolo[2,3-b]quinolin-7-yl)oxy)hexahydro-3aH-cyclopenta[b]furan-3,3a-diol]
pEC50: 8.30

Cc1ncnc2c1ccn2[C@@H]1O[C@@H]2[C@@H](Nc3ccc4cc(F)c(N)nc4c3)CC[C@]2(O)[C@H]1O [Example 120, (2R,3R,3aS,6S,6aR)-6-(2-amino-3-fluoroquinolin-7-yl)amino-2-(4-methyl-7H-pyrrolo[2,3-d]pyrimidin-7-yl)hexahydro-3aH-cyclopenta[b]furan-3,3a-diol]
pEC50: 8.70

Nc1nc2cc(O[C@H]3CC[C@@]4(O)[C@@H]3O[C@@H](n3cc(F)c5c(N)ncnc53)[C@@H]4O)ccc2cc1Br [Example 56, (2R,3R,3aS,6S,6aR)-6-((2-amino-3-bromoquinolin-7-yl)oxy)-2-(4-amino-5-fluoro-7H-pyrrolo[2,3-d]pyrimidin-7-yl)hexahydro-3aH-cyclopenta[b]furan-3,3a-diol]
pEC50: 8.92

Cc1ncnc2c1ccn2[C@@H]1O[C@@H]2[C@H](Cc3ccc4ccc(N)nc4c3)CC[C@]2(O)[C@H]1O [Example 107, (2R,3R,3aS,6S,6aR)-6-((2-aminoquinolin-yl)methyl)-2-(4-methyl-7H-pyrrolo[2,3-d]pyrimidin-7-yl)hexahydro-2H-cyclopenta[b]furan-3,3a-diol]
pEC50: 9.30

C[C@@]1(O)[C@@H](CCc2ccc3cc(Br)c(N)nc3c2)C[C@@H](n2ccc3c(N)ncnc32)[C@@H]1O [Example 103, (1R,2S,3R,5S)-5-(2-(2-amino-3-bromoquinolin-7-yl)ethyl)-3-(4-amino-7H-pyrrolo[2,3-d]pyrimidin-7-yl)-1-methylcyclopentane-1,2-diol]
pEC50: 7.91

CC(C)(O)c1ncnc2c1ccn2[C@@H]1O[C@@H]2[C@@H](Oc3ccc4cc(Br)c(N)nc4c3)CC[C@]2(O)[C@H]1O [Example 78, (2R,3R,3aS,6S,6aR)-6-1(2-amino-3-bromoquinolin-7-yl)oxyl-2-[4-(2-hydroxypropan-2-yl)-7H-pyrrolo[2,3-d]pyrimidin-7-yl]hexahydro-3aH-cyclcopenta[b]furan-3,3a-diol]
pEC50: 5.22

Nc1ncc2c(F)cn([C@@H]3O[C@@H]4[C@@H](Oc5ccc6cc(Br)c(N)nc6c5)CC[C@]4(O)[C@H]3O)c2n1 [Example 130, (2R,3R,3aS,6S,6aR)-6-((2-amino-3-bromoquinolin-7-yl)oxy)-2-(2-amino-5-fluoro-7H-pyrrolo[2,3-d]pyrimidin-7-yl)hexahydro-3aH-cyclopenta[b]furan-3,3a-diol]
pEC50: 6.87
